Measured values taken from PubChem BioAssay (NCI).
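Where inhibition never reached the appropriate level, the endpoint shown equals the highest concentration tested. Otherwise, values were interpolated linearly from a five-concentration, 48-hour dose response in 96-well plates. TGI is the concentration that stops growth completely.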

What follows are compounds tested on CAKI-1 renal (assay: inhibition of tumour cell growth, NCI panel, 48 h).

Structure (SMILES) | TGI [µM]
CC(C)NC(=O)OCc1c(COC(=O)NC(C)C)c(-c2cc[n+](COC(=O)C3CCCCC3)cc2)n2c1CCC2 | > 100
Cc1ccc(/C=C2/N=C(N/N=C\c3ccccc3)NC2=O)cc1 | > 100
O=C(Nc1ccc2ccccc2c1)c1cc2cc(CCl)ccc2oc1=O | > 100
CN(C)CCNC(=O)c1c(O)ccc2c1c1c(n2CCc2ccccc2)C(=O)c2ccccc2C1=O | 19.2
N#Cc1nc(-c2cccc(-c3nc(C#N)c(N)o3)n2)oc1N | > 100
O=C1C(c2c(O)[nH]c3ccc(S(=O)(=O)NCCO)cc23)=Nc2ccccc21 | > 100

What follows are compounds tested on COLO 205 colon (assay: inhibition of tumour cell growth, NCI panel, 48 h).

Structure (SMILES) | TGI [µM]
CC(C)NC(=O)OCc1c(COC(=O)NC(C)C)c(-c2cc[n+](COC(=O)C3CCCCC3)cc2)n2c1CCC2 | > 100
Cc1ccc(/C=C2/N=C(N/N=C\c3ccccc3)NC2=O)cc1 | > 100
O=C(Nc1ccc2ccccc2c1)c1cc2cc(CCl)ccc2oc1=O | > 100
CN(C)CCNC(=O)c1c(O)ccc2c1c1c(n2CCc2ccccc2)C(=O)c2ccccc2C1=O | 34.4
N#Cc1nc(-c2cccc(-c3nc(C#N)c(N)o3)n2)oc1N | > 100
O=C1C(c2c(O)[nH]c3ccc(S(=O)(=O)NCCO)cc23)=Nc2ccccc21 | > 100

The compounds below were run on DU-145 prostate (assay: inhibition of tumour cell growth, NCI panel, 48 h).

Structure (SMILES) | TGI [µM]
CC(C)NC(=O)OCc1c(COC(=O)NC(C)C)c(-c2cc[n+](COC(=O)C3CCCCC3)cc2)n2c1CCC2 | > 100
Cc1ccc(/C=C2/N=C(N/N=C\c3ccccc3)NC2=O)cc1 | > 100
O=C(Nc1ccc2ccccc2c1)c1cc2cc(CCl)ccc2oc1=O | > 100
CN(C)CCNC(=O)c1c(O)ccc2c1c1c(n2CCc2ccccc2)C(=O)c2ccccc2C1=O | 20.9
N#Cc1nc(-c2cccc(-c3nc(C#N)c(N)o3)n2)oc1N | > 100
O=C1C(c2c(O)[nH]c3ccc(S(=O)(=O)NCCO)cc23)=Nc2ccccc21 | 46.8

Each compound was assayed on HOP-62 NSCLC (assay: inhibition of tumour cell growth, NCI panel, 48 h).

Structure (SMILES) | TGI [µM]
CC(C)NC(=O)OCc1c(COC(=O)NC(C)C)c(-c2cc[n+](COC(=O)C3CCCCC3)cc2)n2c1CCC2 | > 100
Cc1ccc(/C=C2/N=C(N/N=C\c3ccccc3)NC2=O)cc1 | > 100
O=C(Nc1ccc2ccccc2c1)c1cc2cc(CCl)ccc2oc1=O | > 100
CN(C)CCNC(=O)c1c(O)ccc2c1c1c(n2CCc2ccccc2)C(=O)c2ccccc2C1=O | 23.1
N#Cc1nc(-c2cccc(-c3nc(C#N)c(N)o3)n2)oc1N | > 100
O=C1C(c2c(O)[nH]c3ccc(S(=O)(=O)NCCO)cc23)=Nc2ccccc21 | > 100

Each compound was assayed on HS 578T breast (assay: inhibition of tumour cell growth, NCI panel, 48 h).

Structure (SMILES) | TGI [µM]
CC(C)NC(=O)OCc1c(COC(=O)NC(C)C)c(-c2cc[n+](COC(=O)C3CCCCC3)cc2)n2c1CCC2 | > 100
Cc1ccc(/C=C2/N=C(N/N=C\c3ccccc3)NC2=O)cc1 | 85.3
O=C(Nc1ccc2ccccc2c1)c1cc2cc(CCl)ccc2oc1=O | 8.73
CN(C)CCNC(=O)c1c(O)ccc2c1c1c(n2CCc2ccccc2)C(=O)c2ccccc2C1=O | 27.1
N#Cc1nc(-c2cccc(-c3nc(C#N)c(N)o3)n2)oc1N | > 100
O=C1C(c2c(O)[nH]c3ccc(S(=O)(=O)NCCO)cc23)=Nc2ccccc21 | > 100

These compounds were tested on IGROV1 ovarian (assay: inhibition of tumour cell growth, NCI panel, 48 h).

Structure (SMILES) | TGI [µM]
CC(C)NC(=O)OCc1c(COC(=O)NC(C)C)c(-c2cc[n+](COC(=O)C3CCCCC3)cc2)n2c1CCC2 | > 100
Cc1ccc(/C=C2/N=C(N/N=C\c3ccccc3)NC2=O)cc1 | > 100
O=C(Nc1ccc2ccccc2c1)c1cc2cc(CCl)ccc2oc1=O | > 100
CN(C)CCNC(=O)c1c(O)ccc2c1c1c(n2CCc2ccccc2)C(=O)c2ccccc2C1=O | 21.8
N#Cc1nc(-c2cccc(-c3nc(C#N)c(N)o3)n2)oc1N | > 100
O=C1C(c2c(O)[nH]c3ccc(S(=O)(=O)NCCO)cc23)=Nc2ccccc21 | > 100

What follows are compounds tested on K-562 leukemia (assay: inhibition of tumour cell growth, NCI panel, 48 h).

Structure (SMILES) | TGI [µM]
CC(C)NC(=O)OCc1c(COC(=O)NC(C)C)c(-c2cc[n+](COC(=O)C3CCCCC3)cc2)n2c1CCC2 | > 100
Cc1ccc(/C=C2/N=C(N/N=C\c3ccccc3)NC2=O)cc1 | > 100
O=C(Nc1ccc2ccccc2c1)c1cc2cc(CCl)ccc2oc1=O | > 100
CN(C)CCNC(=O)c1c(O)ccc2c1c1c(n2CCc2ccccc2)C(=O)c2ccccc2C1=O | 6.07
N#Cc1nc(-c2cccc(-c3nc(C#N)c(N)o3)n2)oc1N | > 100
O=C1C(c2c(O)[nH]c3ccc(S(=O)(=O)NCCO)cc23)=Nc2ccccc21 | 69.4

These compounds were tested on KM12 colon (assay: inhibition of tumour cell growth, NCI panel, 48 h).

Structure (SMILES) | TGI [µM]
CC(C)NC(=O)OCc1c(COC(=O)NC(C)C)c(-c2cc[n+](COC(=O)C3CCCCC3)cc2)n2c1CCC2 | > 100
Cc1ccc(/C=C2/N=C(N/N=C\c3ccccc3)NC2=O)cc1 | > 100
O=C(Nc1ccc2ccccc2c1)c1cc2cc(CCl)ccc2oc1=O | > 100
CN(C)CCNC(=O)c1c(O)ccc2c1c1c(n2CCc2ccccc2)C(=O)c2ccccc2C1=O | 15.9
N#Cc1nc(-c2cccc(-c3nc(C#N)c(N)o3)n2)oc1N | > 100
O=C1C(c2c(O)[nH]c3ccc(S(=O)(=O)NCCO)cc23)=Nc2ccccc21 | 2.2

These compounds were tested on LOX IMVI melanoma (assay: inhibition of tumour cell growth, NCI panel, 48 h).

Structure (SMILES) | TGI [µM]
CC(C)NC(=O)OCc1c(COC(=O)NC(C)C)c(-c2cc[n+](COC(=O)C3CCCCC3)cc2)n2c1CCC2 | > 100
Cc1ccc(/C=C2/N=C(N/N=C\c3ccccc3)NC2=O)cc1 | > 100
O=C(Nc1ccc2ccccc2c1)c1cc2cc(CCl)ccc2oc1=O | > 100
CN(C)CCNC(=O)c1c(O)ccc2c1c1c(n2CCc2ccccc2)C(=O)c2ccccc2C1=O | 6.93
N#Cc1nc(-c2cccc(-c3nc(C#N)c(N)o3)n2)oc1N | > 100
O=C1C(c2c(O)[nH]c3ccc(S(=O)(=O)NCCO)cc23)=Nc2ccccc21 | > 100

Each compound was assayed on MALME-3M melanoma (assay: inhibition of tumour cell growth, NCI panel, 48 h).

Structure (SMILES) | TGI [µM]
CC(C)NC(=O)OCc1c(COC(=O)NC(C)C)c(-c2cc[n+](COC(=O)C3CCCCC3)cc2)n2c1CCC2 | > 100
Cc1ccc(/C=C2/N=C(N/N=C\c3ccccc3)NC2=O)cc1 | > 100
O=C(Nc1ccc2ccccc2c1)c1cc2cc(CCl)ccc2oc1=O | > 100
CN(C)CCNC(=O)c1c(O)ccc2c1c1c(n2CCc2ccccc2)C(=O)c2ccccc2C1=O | 9.35
N#Cc1nc(-c2cccc(-c3nc(C#N)c(N)o3)n2)oc1N | > 100
O=C1C(c2c(O)[nH]c3ccc(S(=O)(=O)NCCO)cc23)=Nc2ccccc21 | > 100

Each compound was assayed on MDA-MB-231 breast (assay: inhibition of tumour cell growth, NCI panel, 48 h).

Structure (SMILES) | TGI [µM]
CC(C)NC(=O)OCc1c(COC(=O)NC(C)C)c(-c2cc[n+](COC(=O)C3CCCCC3)cc2)n2c1CCC2 | > 100
Cc1ccc(/C=C2/N=C(N/N=C\c3ccccc3)NC2=O)cc1 | > 100
O=C(Nc1ccc2ccccc2c1)c1cc2cc(CCl)ccc2oc1=O | > 100
CN(C)CCNC(=O)c1c(O)ccc2c1c1c(n2CCc2ccccc2)C(=O)c2ccccc2C1=O | 15
N#Cc1nc(-c2cccc(-c3nc(C#N)c(N)o3)n2)oc1N | > 100
O=C1C(c2c(O)[nH]c3ccc(S(=O)(=O)NCCO)cc23)=Nc2ccccc21 | 31.6

Each compound was assayed on OVCAR-3 ovarian (assay: inhibition of tumour cell growth, NCI panel, 48 h).

Structure (SMILES) | TGI [µM]
CC(C)NC(=O)OCc1c(COC(=O)NC(C)C)c(-c2cc[n+](COC(=O)C3CCCCC3)cc2)n2c1CCC2 | > 100
Cc1ccc(/C=C2/N=C(N/N=C\c3ccccc3)NC2=O)cc1 | > 100
O=C(Nc1ccc2ccccc2c1)c1cc2cc(CCl)ccc2oc1=O | > 100
CN(C)CCNC(=O)c1c(O)ccc2c1c1c(n2CCc2ccccc2)C(=O)c2ccccc2C1=O | 28.1
N#Cc1nc(-c2cccc(-c3nc(C#N)c(N)o3)n2)oc1N | > 100
O=C1C(c2c(O)[nH]c3ccc(S(=O)(=O)NCCO)cc23)=Nc2ccccc21 | 18.3

These compounds were tested on OVCAR-5 ovarian (assay: inhibition of tumour cell growth, NCI panel, 48 h).

Structure (SMILES) | TGI [µM]
CC(C)NC(=O)OCc1c(COC(=O)NC(C)C)c(-c2cc[n+](COC(=O)C3CCCCC3)cc2)n2c1CCC2 | > 100
Cc1ccc(/C=C2/N=C(N/N=C\c3ccccc3)NC2=O)cc1 | > 100
O=C(Nc1ccc2ccccc2c1)c1cc2cc(CCl)ccc2oc1=O | > 100
CN(C)CCNC(=O)c1c(O)ccc2c1c1c(n2CCc2ccccc2)C(=O)c2ccccc2C1=O | 29.5
N#Cc1nc(-c2cccc(-c3nc(C#N)c(N)o3)n2)oc1N | > 100
O=C1C(c2c(O)[nH]c3ccc(S(=O)(=O)NCCO)cc23)=Nc2ccccc21 | > 100

Each compound was assayed on OVCAR-8 ovarian (assay: inhibition of tumour cell growth, NCI panel, 48 h).

Structure (SMILES) | TGI [µM]
CC(C)NC(=O)OCc1c(COC(=O)NC(C)C)c(-c2cc[n+](COC(=O)C3CCCCC3)cc2)n2c1CCC2 | > 100
Cc1ccc(/C=C2/N=C(N/N=C\c3ccccc3)NC2=O)cc1 | > 100
O=C(Nc1ccc2ccccc2c1)c1cc2cc(CCl)ccc2oc1=O | > 100
CN(C)CCNC(=O)c1c(O)ccc2c1c1c(n2CCc2ccccc2)C(=O)c2ccccc2C1=O | 23.4
N#Cc1nc(-c2cccc(-c3nc(C#N)c(N)o3)n2)oc1N | > 100
O=C1C(c2c(O)[nH]c3ccc(S(=O)(=O)NCCO)cc23)=Nc2ccccc21 | > 100

These compounds were tested on RPMI-8226 leukemia (assay: inhibition of tumour cell growth, NCI panel, 48 h).

Structure (SMILES) | TGI [µM]
CC(C)NC(=O)OCc1c(COC(=O)NC(C)C)c(-c2cc[n+](COC(=O)C3CCCCC3)cc2)n2c1CCC2 | > 100
Cc1ccc(/C=C2/N=C(N/N=C\c3ccccc3)NC2=O)cc1 | 48.3
O=C(Nc1ccc2ccccc2c1)c1cc2cc(CCl)ccc2oc1=O | > 100
CN(C)CCNC(=O)c1c(O)ccc2c1c1c(n2CCc2ccccc2)C(=O)c2ccccc2C1=O | 11.6
N#Cc1nc(-c2cccc(-c3nc(C#N)c(N)o3)n2)oc1N | > 100
O=C1C(c2c(O)[nH]c3ccc(S(=O)(=O)NCCO)cc23)=Nc2ccccc21 | > 100

Each compound was assayed on SK-OV-3 ovarian (assay: inhibition of tumour cell growth, NCI panel, 48 h).

Structure (SMILES) | TGI [µM]
CC(C)NC(=O)OCc1c(COC(=O)NC(C)C)c(-c2cc[n+](COC(=O)C3CCCCC3)cc2)n2c1CCC2 | > 100
Cc1ccc(/C=C2/N=C(N/N=C\c3ccccc3)NC2=O)cc1 | > 100
O=C(Nc1ccc2ccccc2c1)c1cc2cc(CCl)ccc2oc1=O | > 100
CN(C)CCNC(=O)c1c(O)ccc2c1c1c(n2CCc2ccccc2)C(=O)c2ccccc2C1=O | 31.5
N#Cc1nc(-c2cccc(-c3nc(C#N)c(N)o3)n2)oc1N | > 100
O=C1C(c2c(O)[nH]c3ccc(S(=O)(=O)NCCO)cc23)=Nc2ccccc21 | 20.3

The compounds below were run on SNB-75 CNS (assay: inhibition of tumour cell growth, NCI panel, 48 h).

Structure (SMILES) | TGI [µM]
CC(C)NC(=O)OCc1c(COC(=O)NC(C)C)c(-c2cc[n+](COC(=O)C3CCCCC3)cc2)n2c1CCC2 | > 100
Cc1ccc(/C=C2/N=C(N/N=C\c3ccccc3)NC2=O)cc1 | > 100
O=C(Nc1ccc2ccccc2c1)c1cc2cc(CCl)ccc2oc1=O | 38.5
CN(C)CCNC(=O)c1c(O)ccc2c1c1c(n2CCc2ccccc2)C(=O)c2ccccc2C1=O | 28.1
N#Cc1nc(-c2cccc(-c3nc(C#N)c(N)o3)n2)oc1N | > 100
O=C1C(c2c(O)[nH]c3ccc(S(=O)(=O)NCCO)cc23)=Nc2ccccc21 | 7.43

The compounds below were run on UO-31 renal (assay: inhibition of tumour cell growth, NCI panel, 48 h).

Structure (SMILES) | TGI [µM]
CC(C)NC(=O)OCc1c(COC(=O)NC(C)C)c(-c2cc[n+](COC(=O)C3CCCCC3)cc2)n2c1CCC2 | > 100
Cc1ccc(/C=C2/N=C(N/N=C\c3ccccc3)NC2=O)cc1 | 45.6
O=C(Nc1ccc2ccccc2c1)c1cc2cc(CCl)ccc2oc1=O | > 100
CN(C)CCNC(=O)c1c(O)ccc2c1c1c(n2CCc2ccccc2)C(=O)c2ccccc2C1=O | 13.8
N#Cc1nc(-c2cccc(-c3nc(C#N)c(N)o3)n2)oc1N | > 100
O=C1C(c2c(O)[nH]c3ccc(S(=O)(=O)NCCO)cc23)=Nc2ccccc21 | > 100
